We go through four molecules from patent publication US20100104580A1, “Altered Immunogenic Landscape in HIV-1 Envelope Proteins” (priority 2008, published 2010).

The test system of series [1] is interaction between gp120 and 17b. The note with it: cited from earlier work.
Series [2] relates to interaction between gp120 and four-domain soluble CD4 (4dCD4). As to conditions: cited from earlier work.
In series [3] the target is gp120 binding to both host cell receptors (CD4 and CCR5) (Human immunodeficiency virus type 1 group M subtype B, UniProt P35961). The series can be described thus: Dual antagonism of gp120 binding to host cell receptors. Details: species or system HIV-1. The note with it: inhibiting gp120 binding to CD4 and CCR5.
In series [4] the test system is gp 120 from two other HIV-1 strains. The series can be described thus: Affinity for gp120 of other strains. It counts as binding. The text has this: HIV-1YU2gp120 was produced as described previously in Drosophila S2 cells (Biorn et al., 2004, Biochem. 43:1928-1938; Pancera et al., 2005, J Virol. 79:9954-9969). Cells were spun down and supernatant sterile filtered. Supernatant was purified over an F105-antibody column (NHS-activated Sepharose, Amersham; F 105 antibody coupled according to manufacturer's instructions). […] Supernatant from the hollow fiber bioreactor was purified with an SP-column and bound fractions were then run over a Q-column. Unbound material was concentrated and analysed by SDS-PAGE. The gp120 proteins from HIV-1 SF162 and HIV-192UG037-08 were used in previous inhibitor binding studies (Cocklin et al., 2007, J Virol. 81:3645-3648); HIV-1SF162 gp120 was obtained through NIH AIDS Research and Reference Reagent Program from DAIDS and NIAID, while HIV-192UG037-08 gp120 was a gift as reported in Cocklin et al. (2007, J Virol. 81:3645-3648). The following monoclonal antibodies were obtained through the NIH AIDS Research and Reference Reagent Program: 2G12 from Dr Hermann Katinger; F105 from Dr Marshall Posner and Dr Lisa Cavacini; b12 from Dr Dennis Burton and Carlos Barbas.

The target in a further series is T1, gp120YU2 (Human immunodeficiency virus type 1 group M subtype B, UniProt P35961).
T1 construct: for HIV-1 YU2 gp 120 envelope protein; made in house; host or cells: Drosophila S2 cells
The format is binding, HIV-1. The note with it: HNG-156 at the concentrations tested (0.6 μM elsewhere in the source).

The subject of another series is HIV-1 BaL. The note with it: recombinant CV-N; cited from earlier work.
In series [5] the test system is M-tropic and T-tropic strains of HIV-1, SIV, FIV. The note with it: cited from earlier work.
A further series deals with SHIV89.6P. As to conditions: cited from earlier work.
For series [6] the following is noted: female macaques; cited from earlier work.

Description for gp120YU2: b12 binding to gp120YU2 was assayed by SPR using a Biacore 3000 instrument. […] Buffer (PBS+0.005% Tween-20) injection and control surface responses were subtracted from the injection of gp120 over b12 and binding sensorgrams were obtained.
Inhibition curves were generated from response at the end of association. b12 was injected at 100 ul/min with 2.5 min. association and 2 min. dissociation and binding curves were generated from responses at the 100th second of dissociation.
100 ng gp120YU2 was adsorbed to wells. […] Bound antibody was detected with species specific secondary antibody-HRP, and read with OPD assay at 450 nm.

Regarding `CC[C@H](C)[C@H](NC(=O)[C@@H](N)CCCNC(=N)N)C(=O)N[C@@H](CC(N)=O)C(=O)N[C@@H](CC(N)=O)C(=O)N[C@H](C(=O)N1CCC[C@H]1C(=O)N[C@@H](Cc1c[nH]c2ccccc12)C(=O)N[C@@H](CO)C(=O)N[C@@H](CCC(=O)O)C(=O)N[C@@H](C)C(=O)N[C@@H](CCSC)C(=O)N[C@@H](CCSC)C(=O)O)[C@@H](C)CC` [12p1], the “inhibition of the gp120-17b interaction” value in series [1] was “found to inhibit”. Further, the “inhibition of the gp120-4dCD4 interaction” value in series [2] was “found to inhibit”.

Take `CC[C@H](C)[C@H](NC(=O)[C@@H](N)CCCNC(=N)N)C(=O)N[C@@H](CC(N)=O)C(=O)N[C@@H](CC(N)=O)C(=O)N[C@H](C(=O)N1C[C@@H](n2cc(-c3cccc4ccccc34)nn2)C[C@H]1C(=O)N[C@@H](Cc1c[nH]c2ccccc12)C(=O)N[C@@H](CO)C(=O)N[C@@H](CCC(=O)O)C(=O)N[C@@H](C)C(=O)N[C@@H](CCSC)C(=O)N[C@@H](CCSC)C(N)=O)[C@@H](C)CC` [HNG-125]: the dual antagonism function entry in [3] is “dual antagonism function”.

With `CC[C@H](C)[C@H](NC(=O)[C@@H](N)CCCNC(=N)N)C(=O)N[C@@H](CC(N)=O)C(=O)N[C@@H](CC(N)=O)C(=O)N[C@H](C(=O)N1C[C@@H](n2cc([C]34[CH]5[CH]6[CH]7[CH]3[Fe]6754389%10[CH]4[CH]3[CH]8[CH]9[CH]4%10)nn2)C[C@H]1C(=O)N[C@@H](Cc1c[nH]c2ccccc12)C(=O)N[C@@H](CO)C(=O)N[C@@H](CCC(=O)O)C(=O)N[C@@H](C)C(=O)N[C@@H](CCSC)C(=O)N[C@@H](CCSC)C(N)=O)[C@@H](C)CC` (stereo partly drawn) [HNG-156, RINNIXWSEAMM, where residue 6 is (2s, 4s)-4-(4-ferrocenyl-1H-1, 2, 3-triazol-1-yl) pyrrolidine-2-carboxylic acid], the “affinity for gp 120 from two other HIV-1 strains” value in [4] was “similarly high affinity”. Further, the dual antagonism function result in series [3] is reported as “dual antagonism function”. For the same molecule, the “mAb F105 binding inhibition” value at gp120YU2 is “inhibited to near completion”.

B1: CV-N: 11 kD protein originally isolated from the cyanobacteria Nostoc ellipsosporum (protein)
chain: LGKFSQTCYNSAIQGSVLTSTCERTNGGYNTSSIDLNSVIENVDGSLKWQPSNFIETCRNTQLAGSSELAAECKTRAQQFVSTKINLDDHIANIDGTLKYE
Consider B1, for which, in the series on HIV-1 BaL, the “cytotoxic effects in ectocervical explants” value was “without cytotoxic effects” and the “infection of human ectocervical explants” value was “blocks HIV-1 BaL infection”. For the same molecule, the “inactivation of virus strains” value in series [5] was “inactivates a broad range of M-tropic and T-tropic strains”. Moreover, in the series with SHIV89.6P (gel formulations applied rectally, male macaques), the “protection against virus challenge” value was “protected against challenge”. Besides, the clinically adverse effects in the series with SHIV89.6P (rectal and vaginal macaque in vivo assays) is given as “no clinically adverse effects”. For the same molecule, in [6], the “in vivo efficacy, vaginal challenge” value was “In vivo efficacy has also be shown”.
